Tested on: PC-3-KQ and PC-3-KR cells
Assay: RNA-sequencing and differential gene expression
Type: cell-based, human
Details: for logFC: KQ-Control vs KQ-NTZ

Compound: CC(=O)Oc1ccccc1C(=O)Nc1ncc([N+](=O)[O-])s1 [Nitazoxanide]
- change of NTZ treatment (gene ANKRD36C): down
- logFC (gene ANKRD37): 0.9125
- logFC (gene ANXA8): 0.7906
- change of NTZ treatment (gene ANXA8L1): down
- change of NTZ treatment (gene ARG2): up
- logFC (gene ARG2): 2.138
- change of NTZ treatment (gene ARL10): down
- change of NTZ treatment (gene ARSK): up
- logFC (gene ARSK): 0.7653
- change of NTZ treatment (gene ASB2): down
- logFC (gene ATP2A3): 1.284
- change of NTZ treatment (gene BRINP2): down
- change of NTZ treatment (gene BTBD11): down
- change of NTZ treatment (gene BTN3A3): up
- logFC (gene CAPN12): 0.767
- change of NTZ treatment (gene CAPSL): down
- logFC (gene CCNA1): 0.9046
- change of NTZ treatment (gene CEP19): down
- logFC (gene CFB): 0.9221
- change of NTZ treatment (gene CNTNAP3B): down
- logFC (gene COL4A3): 2.258
- logFC (gene COL4A4): 0.8129
- change of NTZ treatment (gene CSF1R): up
- change of NTZ treatment (gene CXCL5): down
- change of NTZ treatment (gene CYP1B1): up
- change of NTZ treatment (gene CYP2E1): up
- change of NTZ treatment (gene CYP8B1): up
- logFC (gene CYP8B1): 1.238
- change of NTZ treatment (gene CYSTM1): up
- logFC (gene CYSTM1): 0.6246
- change of NTZ treatment (gene DEPTOR): down
- change of NTZ treatment (gene DISP1): up
- logFC (gene DISP1): 0.6346
- change of NTZ treatment (gene DMPK): up
- logFC (gene DMPK): 0.6319
- change of NTZ treatment (gene DRP2): down
- change of NTZ treatment (gene ECM2): down
- change of NTZ treatment (gene ESPN): up
- logFC (gene FA2H): 1.574
- change of NTZ treatment (gene FAM83D): down
- logFC (gene FAM178B): 1.11
- change of NTZ treatment (gene FAM186B): down
- change of NTZ treatment (gene FANCI): down
- change of NTZ treatment (gene FANCL): down
- change of NTZ treatment (gene FCGBP): down
- logFC (gene FER1L6): 0.6222
- logFC (gene FIBCD1): 1.28
- change of NTZ treatment (gene FLI1): down
- change of NTZ treatment (gene FLRT1): down
- change of NTZ treatment (gene FRY): up
- logFC (gene FRY): 1.204
- change of NTZ treatment (gene FSD2): down
- logFC (gene FTH1): 1.218
- logFC (gene FUT3): 0.7626
- logFC (gene FXYD3): 0.8317
- change of NTZ treatment (gene FZD4): down
- logFC (gene GALNT12): 0.8862
- change of NTZ treatment (gene GCNT3): up
- logFC (gene GCNT3): 2.701
- logFC (gene GDPD3): 1.109
- change of NTZ treatment (gene HAS3): down
- change of NTZ treatment (gene HSPB8): up
- logFC (gene HSPB8): 1.784
- change of NTZ treatment (gene IFITM10): up
- change of NTZ treatment (gene IGDCC4): up
- logFC (gene IGDCC4): 1.493
- change of NTZ treatment (gene IGF2BP1): down
- change of NTZ treatment (gene IL1RN): up
- logFC (gene IL36RN): 0.6398
- change of NTZ treatment (gene INHBA): down
- change of NTZ treatment (gene KDELR2): up
- logFC (gene KDELR2): 0.621
- logFC (gene KIAA0319): 2.322
- change of NTZ treatment (gene KIAA1755): down
- logFC (gene KLHDC7B): 1.286
- logFC (gene LOC105374299): 1.732
- change of NTZ treatment (gene LONRF2): down
- logFC (gene LRRK1): 0.8715
- change of NTZ treatment (gene LTB): down
- change of NTZ treatment (gene MAP2): up
- logFC (gene MAP2): 0.8904
- change of NTZ treatment (gene MCM4): down
- change of NTZ treatment (gene MEF2C): up
- change of NTZ treatment (gene MEOX1): down
- change of NTZ treatment (gene METRNL): up
- logFC (gene MFSD2A): 0.6152
- logFC (gene MINAR1): 1.165
- change of NTZ treatment (gene MMP9): down
- change of NTZ treatment (gene MROH8): down
- change of NTZ treatment (gene MUC4): up
- logFC (gene MUC4): 1.575
- logFC (gene MVP): 0.7778
- change of NTZ treatment (gene MYH7B): down
- change of NTZ treatment (gene NAV1): up
- logFC (gene NAV1): 1.226
- logFC (gene NECTIN4): 1.852
- change of NTZ treatment (gene NKD1): down
- logFC (gene NLRC5): 0.8508
- change of NTZ treatment (gene NR4A2): up
- change of NTZ treatment (gene NT5E): up
- logFC (gene NT5E): 0.5964
- change of NTZ treatment (gene PCDH18): down
- logFC (gene PDGFA): 0.7622
- change of NTZ treatment (gene PDZK1): up
- logFC (gene PDZK1): 0.8579
- change of NTZ treatment (gene PGAM4): down
- change of NTZ treatment (gene PHOSPHO2): down
- change of NTZ treatment (gene PIANP): down
- logFC (gene PKIA): 0.8539
- change of NTZ treatment (gene PLEKHG1): up
- logFC (gene PRKAR1B): 0.8008
- change of NTZ treatment (gene PRKDC): down
- change of NTZ treatment (gene PROS1): up
- logFC (gene PROS1): 0.9134
- change of NTZ treatment (gene PRR16): down
- change of NTZ treatment (gene PRRT4): down
- change of NTZ treatment (gene RBL1): down
- logFC (gene RMDN2): 0.9051
- change of NTZ treatment (gene RND1): up
- change of NTZ treatment (gene RP1L1): down
- change of NTZ treatment (gene S100A6): up
- logFC (gene S100A6): 0.6427
- logFC (gene SAT1): 0.7952
- logFC (gene SDCBP2): 1.238
- change of NTZ treatment (gene SERPINA5): down
- change of NTZ treatment (gene SERPINB3): down
- change of NTZ treatment (gene SERPINB4): down
- change of NTZ treatment (gene SERPIND1): down
- change of NTZ treatment (gene SGK3): up
- change of NTZ treatment (gene SHISA3): down
- change of NTZ treatment (gene SLC41A2): up
- logFC (gene SLC41A2): 0.8444
- change of NTZ treatment (gene SLFN11): up
- change of NTZ treatment (gene SMCO4): up
- change of NTZ treatment (gene SPOCK2): up
- logFC (gene SPOCK2): 1.756
- logFC (gene SRPX): 0.5983
- logFC (gene STK32A): 1.274
- logFC (gene SYN3): 1.227
- logFC (gene TBX2): 0.6055
- change of NTZ treatment (gene TCN1): down
- change of NTZ treatment (gene TJP3): up
- logFC (gene TJP3): 0.6134
- change of NTZ treatment (gene TMEM140): up
- change of NTZ treatment (gene TMEM269): up
- logFC (gene TMEM269): 0.7715
- logFC (gene TMOD1): 1.793
- logFC (gene TMPRSS2): 1.205
- change of NTZ treatment (gene TNFRSF6B): down
- change of NTZ treatment (gene TNFRSF11B): down
- logFC (gene TNFSF14): 1.643
- change of NTZ treatment (gene TRIM31): up
- logFC (gene TRIM31): 1.207
- change of NTZ treatment (gene TTC9): up
- change of NTZ treatment (gene TTC30B): down
- logFC (gene UGT2B7): 1.608
- logFC (gene WHRN): 0.869
- logFC (gene WNT4): 1.78
- change of NTZ treatment (gene WNT9A): up
- change of NTZ treatment (gene ZNF302): down

Source: paper PMC9945734 (BMC Medicine, 2023)
